From patent publication US20110105397A1, “METHOD FOR TREATING HEART FAILURE WITH STRESSCOPIN-LIKE PEPTIDES” (priority 2009, published 2011) come the findings set out here.

Where two headings read alike, the source gives them in different places. Where a SMILES comes first, the peptide text is derived from it. Where no end group is shown, it is not given here. The star is where a group is joined. Succinimide(1-Et,3-yl) = CCN1C(=O)CC(*)C1=O

This experiment deals with T1, human CRHR2 (Homo sapiens, UniProt Q13324).
T1 construct: expressed in transfected cells
T1 sequence (Q13324 1-411): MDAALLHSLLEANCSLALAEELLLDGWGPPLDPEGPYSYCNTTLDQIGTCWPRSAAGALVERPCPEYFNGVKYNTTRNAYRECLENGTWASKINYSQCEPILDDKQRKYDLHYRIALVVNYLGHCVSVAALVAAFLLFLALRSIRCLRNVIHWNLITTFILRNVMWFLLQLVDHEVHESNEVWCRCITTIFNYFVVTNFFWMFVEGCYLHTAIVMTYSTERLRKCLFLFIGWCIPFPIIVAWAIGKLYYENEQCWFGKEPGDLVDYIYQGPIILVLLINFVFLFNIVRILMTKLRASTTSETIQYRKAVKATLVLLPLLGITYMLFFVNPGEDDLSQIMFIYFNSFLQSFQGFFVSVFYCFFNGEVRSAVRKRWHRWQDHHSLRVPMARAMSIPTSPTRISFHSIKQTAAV
Nature of the experiment: cAMP assay, h-CRHR2 transfected SK-N-MC cells. It is filed as cell-based. The settings on record: for EC50: read-out: pA50 (converted); for Log DR [M]: h-SCP control pA50 minus test compound pA50 within the same assay batch. The procedure:
The concentration required for 50% maximum effect (A50) was 0.4 nM.
Human CRHR1 (accession number X72304) or CRHR2 (accession number U34587) were cloned into pcDNA3.1/Zeo expression vector and stably transfected into SK—N-MC cells by electroporation. Cells were maintained in MEM w/Earl's Salt with 10% FBS, 50 I.U. penicillin, 50 μg/ml streptomycin, 2 mM L-glutamine, 1 mM sodium pyruvate and 0.1 mM non-essential amino acids, 600 μg/ml G418. Cells were grown at 37° C. in 5% CO2
Cells were plated in 96-well tissue culture dishes (Biocoat from BD Biosciences) overnight at 50,000 cell/well. Cells were washed with PBS then resuspended in DMEM F-12 without phenol red, containing 10 μM isobutylmethylxanthine (IBMX). Cells were incubated with the peptides at concentrations ranging from 1 pM to 10 μM for 60 min at 37° Celsius. […] Forskolin (10 μM), a direct stimulant of adenylate cyclase, was used as positive control. The assays were stopped by the addition of 0.5 M HCl and mixing by orbital rotation for 2 h at 4° Celsius.
To assess the activity of the inventive polypeptide at the CRHR2, an intracellular cAMP measurement test using a Flash plate radioactive assay (Catalog No. Cus56088; Perkin Elmer, Mass., U.S.A.) was employed.
Transfected SK—N-MC cells were plated in 96-well Biocoat tissue culture dishes (BD Biosciences, San Jose, Calif., U.S.A) overnight at 50,000 cell/well. Cells were first washed with PBS and then suspended with DMEM/F-12 without phenol red, containing […]. Suspended cells were transferred into a 96-well flash plate coated with scintillant fluid. Cells were incubated with peptides ranging from 1 pM to 1 μM, for 60 min, at 37° Celsius. Forskolin at 10 μM was used as positive control. After ligand stimulation, cells were lysed by the addition of 0.5M HCl and mixed by orbital rotation for 2 h at 4° Celsius in order to release intracellular cAMP into the media.
Media containing released intracellular cAMP was transferred to a 96-well flash plate coated with scintillant fluid containing an anti-cAMP antibody. In this assay, intracellular cAMP competes with ^125I-labeled cAMP binding to the antibody. To generate a standard curve, cAMP ranging from 2.5 to 250 pmoles/ml was included in the experiment. [^125I]-cAMP was measured on a TopCount scintillation counter (Perkin Elmer, Mass., U.S.A).
Individual agonist concentration-response curve data were fitted to the Hill equation, see formula below, using GraphPad Prism (Graphpad Software, La Jolla, Calif., U.S.A.), to provide estimates of agonist concentration needed to generate one-half maximal response (A50), and the maximal asymptote (α) and Hill slope (nH) parameters. In this equation, [A] is the agonist concentration and E is the measured effect:
For display purposes the mean fitted parameter estimates were used to generate a single E/[A] curve shown superimposed on the mean experimental data. Potency estimates for agonists, pA50, are expressed as the negative logarithm of the midpoint of each curve and listed with their standard error of measurement (SEM). Logarithm base 10 of the agonist dose ratio (Log DR) values were calculated by subtraction of the test compound pA50 value from the corresponding h-SCP (SEQ ID NO:1) control pA50 value within the same assay batch. The SEM values of the Log DR values are given by the square root of the sum of the squared SEM values of the h-SCP (SEQ ID NO:1) control and test compound pA50 values.
Human and rat peptides (see Table 10) were used on the stimulation of h-CRHR1 or h-CRHR2 transfected SK—N-MC cells in the cAMP flash plate assay. Peptides were incubated for 1 hr at 37° Celsius. Curves were calculated using non-linear regression sigmoidal concentration-response analysis calculation in GraphPad Prism. The so obtained pA50 values are shown in Table 11 in addition to literature values. […]
On the technique in general: cAMP levels reflect the balance of adenylyl cyclase and phosphodiesterase activity.

The mark [1] stands for this setting: Table 13, cysteine mutation, N-ethylmaleimide capping, pegylation.

Where the note is “Table 12”, “TLSLDVPTNIMNLLFNIAKAKNLRAQAAANAHLMAQI-NH2 [SEQ ID NO: 108, TLSLDVPTNIMNLLFNIAKAKNLRAQAAANAHLMAQI-NH2]” showed a nH of 0.82. In addition, the EC50 (Table 12, amidation and N-terminal deletions, normalized to maximum response to h-SCP, 3-5 replicate experiments) is 3.24 nM. For the same molecule, the αmax (Table 12, normalized to the maximum response to h-SCP) is given as 106.3.

In the case of `CC[C@H](C)[C@H](NC(=O)[C@H](CC(N)=O)NC(=O)[C@H](Cc1ccccc1)NC(=O)[C@H](CC(C)C)NC(=O)[C@H](CC(C)C)NC(=O)[C@H](CC(N)=O)NC(=O)[C@H](CCSC)NC(=O)[C@@H](NC(=O)[C@H](CC(N)=O)NC(=O)[C@@H](NC(=O)[C@@H]1CCCN1C(=O)[C@@H](NC(=O)[C@H](CC(=O)O)NC(=O)[C@H](CC(C)C)NC(=O)[C@H](CO)NC(=O)[C@H](CC(C)C)NC(=O)[C@@H](NC(=O)[C@H](Cc1ccccc1)NC(=O)[C@H](CCCCN)NC(=O)[C@@H](N)[C@@H](C)O)[C@@H](C)O)C(C)C)[C@@H](C)O)[C@@H](C)CC)C(=O)N[C@@H](C)C(=O)N[C@@H](CCCCN)C(=O)N[C@@H](C)C(=O)N[C@@H](CCCCN)C(=O)N[C@@H](CC(N)=O)C(=O)N[C@@H](CC(C)C)C(=O)N[C@@H](CCCNC(=N)N)C(=O)N[C@@H](C)C(=O)N[C@@H](CCC(N)=O)C(=O)N[C@@H](C)C(=O)N[C@@H](C)C(=O)N[C@@H](C)C(=O)N[C@@H](CC(N)=O)C(=O)N[C@@H](C)C(=O)N[C@@H](Cc1c[nH]cn1)C(=O)N[C@@H](CC(C)C)C(=O)N[C@@H](CCSC)C(=O)N[C@@H](C)C(=O)N[C@@H](CCC(N)=O)C(=O)N[C@@H](CSC1CC(=O)N(CC)C1=O)C(N)=O` (stereo partly shown) [SEQ ID NO: 42, TKFTLSLDVPTNIMNLLFNIAKAKNLRAQAAANAHLMAQC(-NES)-NH2] (H-TKFTLSLDVPTNIMNLLFNIAKAKNLRAQAAANAHLMAQC(Succinimide(1-Et,3-yl))-NH2; N-terminus assumed), the EC50 under setting [1] was about 17.8 nM. Under “Table 13”, the “Log DR [M]” value is about 1.72.

Regarding “TKFTLSLDVPTNIMNLLFNIACAKNLRAQAAANAHLMAQI-NH2 [SEQ ID NO: 23, TKFTLSLDVPTNIMNLLFNIACAKNLRAQAAANAHLMAQI-NH2]”, the EC50 under setting [1] is 2.82 nM. Besides, the “Log DR [M]” value (Table 13) is 1.13.

In the case of “H-TKFTLSLDVPTNIMNLLFNIAKAKNLRAQAAANCHLMAQI-NH2 [SEQ ID NO: 35, TKFTLSLDVPTNIMNLLFNIAKAKNLRAQAAANCHLMAQI-NH2]”, the EC50 under setting [1] was 1.17 nM. Moreover, under “Table 13”, the “Log DR [M]” value stood at 0.70.

As for “TKFTLSLCVPTNIMNLLFNIAKAKNLRAQAAANAHLMAQI-NH2 [SEQ ID NO: 9, TKFTLSLCVPTNIMNLLFNIAKAKNLRAQAAANAHLMAQI-NH2]”, the EC50 under setting [1] is 15.8 nM. For the same molecule, the “Log DR [M]” value (Table 13) amounted to 1.89.

On to “TKFTLSLDVPTCIMNLLFNIAKAKNLRAQAAANAHLMAQI-NH2 [SEQ ID NO: 13, TKFTLSLDVPTCIMNLLFNIAKAKNLRAQAAANAHLMAQI-NH2]”, for which the EC50 under setting [1] was 0.257 nM. Under “Table 13”, the “Log DR [M]” value is −0.01.

Consider `CC[C@H](C)[C@H](NC(=O)[C@H](CCC(N)=O)NC(=O)[C@H](C)NC(=O)[C@H](CCSC)NC(=O)[C@H](CC(C)C)NC(=O)[C@H](Cc1c[nH]cn1)NC(=O)[C@H](C)NC(=O)[C@H](CC(N)=O)NC(=O)[C@H](C)NC(=O)[C@H](C)NC(=O)[C@H](C)NC(=O)[C@H](CCC(N)=O)NC(=O)[C@H](CSC1CC(=O)N(CC)C1=O)NC(=O)[C@H](CCCNC(=N)N)NC(=O)[C@H](CC(C)C)NC(=O)[C@H](CC(N)=O)NC(=O)[C@H](CCCCN)NC(=O)[C@H](C)NC(=O)[C@H](CCCCN)NC(=O)[C@H](C)NC(=O)[C@@H](NC(=O)[C@H](CC(N)=O)NC(=O)[C@H](Cc1ccccc1)NC(=O)[C@H](CC(C)C)NC(=O)[C@H](CC(C)C)NC(=O)[C@H](CC(N)=O)NC(=O)[C@H](CCSC)NC(=O)[C@@H](NC(=O)[C@H](CC(N)=O)NC(=O)[C@@H](NC(=O)[C@@H]1CCCN1C(=O)[C@@H](NC(=O)[C@H](CC(=O)O)NC(=O)[C@H](CC(C)C)NC(=O)[C@H](CO)NC(=O)[C@H](CC(C)C)NC(=O)[C@@H](NC(=O)[C@H](Cc1ccccc1)NC(=O)[C@H](CCCCN)NC(=O)[C@@H](N)[C@@H](C)O)[C@@H](C)O)C(C)C)[C@@H](C)O)[C@@H](C)CC)[C@@H](C)CC)C(N)=O` (stereo partly shown) [SEQ ID NO: 47, TKFTLSLDVPTNIMNLLFNIAKAKNLRC(-NES)QA AANAH LMAQI-NH2] (H-TKFTLSLDVPTNIMNLLFNIAKAKNLRC(Succinimide(1-Et,3-yl))QAAANAHLMAQI-NH2), for which the EC50 under setting [1] is 0.316 nM. Moreover, the “Log DR [M]” value (Table 13) was −0.03.

For the molecule “TKFTLSLDVPTNIMNLLFNIAKAKNLRAQCAANAHLMAQI-NH2 [SEQ ID NO: 31, TKFTLSLDVPTNIMNLLFNIAKAKNLRAQCAANAHLMAQI-NH2]”, the EC50 under setting [1] is 9.55 nM. Under “Table 13”, the “Log DR [M]” value is 1.61.

Take `CC[C@H](C)[C@H](NC(=O)[C@H](CCC(N)=O)NC(=O)[C@H](C)NC(=O)[C@H](CCSC)NC(=O)[C@H](CC(C)C)NC(=O)[C@H](Cc1c[nH]cn1)NC(=O)[C@H](C)NC(=O)[C@H](CC(N)=O)NC(=O)[C@H](C)NC(=O)[C@H](C)NC(=O)[C@H](C)NC(=O)[C@H](CCC(N)=O)NC(=O)[C@H](C)NC(=O)[C@H](CCCNC(=N)N)NC(=O)[C@H](CC(C)C)NC(=O)[C@H](CC(N)=O)NC(=O)[C@H](CSC1CC(=O)N(CC)C1=O)NC(=O)[C@H](C)NC(=O)[C@H](CCCCN)NC(=O)[C@H](C)NC(=O)[C@@H](NC(=O)[C@H](CC(N)=O)NC(=O)[C@H](Cc1ccccc1)NC(=O)[C@H](CC(C)C)NC(=O)[C@H](CC(C)C)NC(=O)[C@H](CC(N)=O)NC(=O)[C@H](CCSC)NC(=O)[C@@H](NC(=O)[C@H](CC(N)=O)NC(=O)[C@@H](NC(=O)[C@@H]1CCCN1C(=O)[C@@H](NC(=O)[C@H](CC(=O)O)NC(=O)[C@H](CC(C)C)NC(=O)[C@H](CO)NC(=O)[C@H](CC(C)C)NC(=O)[C@@H](NC(=O)[C@H](Cc1ccccc1)NC(=O)[C@H](CCCCN)NC(=O)[C@@H](N)[C@@H](C)O)[C@@H](C)O)C(C)C)[C@@H](C)O)[C@@H](C)CC)[C@@H](C)CC)C(N)=O` (stereo partly shown) [SEQ ID NO: 50, TKFTLSLDVPTNIMNLLFNIAKAC(-NES)N LRAQA AANAH LMAQI-NH2] (H-TKFTLSLDVPTNIMNLLFNIAKAC(Succinimide(1-Et,3-yl))NLRAQAAANAHLMAQI-NH2; N-terminus assumed): under setting [1], the EC50 was 0.331 nM. Further, where the note is “Table 13”, the “Log DR [M]” value is given as −0.01.

“H-TKFTLSLDVPTNIMNLLFNIAKAKNLRAQACANAHLMAQI-NH2 [SEQ ID NO: 32, TKFTLSLDVPTNIMNLLFNIAKAKNLRAQACANAHLMAQI-NH2]”: the EC50 under setting [1] was 0.389 nM. Under “Table 13”, the “Log DR [M]” value was 0.11.

Turning to “TKFTCSLDVPTNIMNLLFNIAKAKNLRAQAAANAHLMAQI-NH2 [SEQ ID NO: 6, TKFTCSLDVPTNIMNLLFNIAKAKNLRAQAAANAHLMAQI-NH2]”, the EC50 under setting [1] is 0.851 nM. Further, the “Log DR [M]” value (Table 13) was determined as 0.61.

On to “TKFTLSLDVPTNIMNLLFNIAKAKNLRAQAAANAHLCAQI-NH2 [SEQ ID NO: 38, TKFTLSLDVPTNIMNLLFNIAKAKNLRAQAAANAHLCAQI-NH2]”, for which the EC50 under setting [1] was about 214 nM. Besides, the “Log DR [M]” value (Table 13) is over 2.95.
